Data published in ChEMBL document CHEMBL1157943, “Oblongifolins A-D, polyprenylated benzoylphloroglucinol derivatives from Garcinia oblongifolia” (J Nat Prod, 2006).
pIC50: −log10 of the molar value. Active and inactive are the calls of the source. The rule behind the calls is not given here.

How the values were obtained:
[1] = Inhibition of tubulin assembly
[2] = Inhibition of microtubule disassembly
[3] = Inhibition of tubulin assembly at 10 mg/ml
[4] = Inhibition of microtubule disassembly at 10 mg/ml

pIC50 [1] | Activity [2] | Compound | further results
4.04 | inactive | CC(C)=CCC/C(C)=C/C[C@H]1C[C@]2(C/C=C(\C)CCC=C(C)C)C(=O)[C@@](CC=C(C)C)(C(=O)C(C(=O)c3ccc(O)c(O)c3)=C2O)C1(C)C [OBLONGIFOLIN D] | 
4.28 | inactive | CC(C)=CCC/C(C)=C/C[C@@H]1C[C@]2(CC=C(C)C)C(=O)[C@@](CC=C(C)C)(C(=O)C(C(=O)c3ccc(O)c(O)c3)=C2O)[C@@]1(C)CCC=C(C)C [OBLONGIFOLIN C] | 
4.16 |  | CC(C)=CCC/C(C)=C/C[C@@H]1C[C@]2(CC=C(C)C)C(=O)[C@@](CC=C(C)C)(C(=O)C(C(=O)c3ccc(O)c(O)c3)=C2O)C1(C)C [OBLONGIFOLIN B] | inhibition [4]: 7%

The next lines start with the compound.

Compound | pIC50 [1] | Activity [2] | further results
CC(C)=CCC/C(C)=C/C[C@H]1C[C@]2(CC=C(C)C)C(=O)[C@@](CC=C(C)C)(C(=O)C(C(=O)c3ccc(O)c(O)c3)=C2O)C1(C)C |  | inactive | inhibition [3]: 41%
CC(=O)O[C@H]1C(=O)[C@@]2(C)[C@H]([C@H](OC(=O)c3ccccc3)[C@]3(O)C[C@H](OC(=O)[C@H](O)[C@@H](NC(=O)c4ccccc4)c4ccccc4)C(C)=C1C3(C)C)[C@]1(OC(C)=O)CO[C@@H]1C[C@@H]2O [PACLITAXEL] |  |  | Activity [1]: inactive; pIC50 [2]: 6.30
C=C(C)[C@@H](CC=C(C)C)C[C@@]12C[C@@H](CC=C(C)C)C(C)(C)[C@@](CC=C(C)C)(C(=O)C(C(=O)c3ccc(O)c(O)c3)=C1O)C2=O [GARCINOL] | 4.01 |  | inhibition [4]: 46%
CC(C)=CCC/C(C)=C/C[C@@H]1C[C@@]2(C/C=C(\C)CCC=C(C)C)C(=O)[C@](CC=C(C)C)(C(=O)C(C(=O)c3ccc(O)c(O)c3)=C2O)C1(C)C [GUTTIFERONE B] | 4.28 | inactive | 
